Laboratory results reported in patent publication US9255295B2, “Method for evaluating the sensitizing potential of a test compound” (IMMUNOSEARCH, priority 2010, dated 2016).
Where “and” joins values, the source holds several entries; their conditions need not be identical. Identical values can stand only once. Like-named read-outs stand apart in the source and are kept apart here.

Assays:
[1] = test system: genes specific for sensitization (BRAK, CTSS, DAPK2, FABP4, HSP27, IL18, HSP90, IL1R2, TPSAB1, CXCR1, DEFB1, DHFR, EHF, IVL, KRT4, MELANA, NGAL, PDZK1IP1, PI3 …); experiment: Expression of the other (non-ARE) sensitization-specific genes in EPISKIN reconstructed skin (quantitative RT-PCR); type: cell-based, human
[2] = test system: ARE gene family (AKR1B10, AKR1C1, AKR1C2, CYP1B1, FTH1P, FTL, G6PD, GCLM, NQO2, SLC7A11, TXNRD1, UGT1A1, UGT1A9, YWHAZ, CD36, CYP1A1, GCLC, HMOX1, NQO1, PSME2 …)

Nc1ccccc1O [2-aminophenol]
BRAK grade (NUMBER OF GENES) [1]: 0 (key: If the expression is greater than 1.3 compared to the control, a grade of 11s given; if this expression is lower, the grade is 0) | CTSS expression compared to control [1]: 1.3 and 1.2 and 1.4 | DAPK2 expression compared to control [1]: 1.0 and 0.9 | DAPK2 grade (NUMBER OF GENES) [1]: 0 (key: If the expression is greater than 1.3 compared to the control, a grade of 11s given; if this expression is lower, the grade is 0) | DEFB1 expression compared to control [1]: 1.9 and 1.8 and 1.4 and 1.1 | DHFR expression compared to control [1]: 0.9 and 1.2 | DHFR grade (NUMBER OF GENES) [1]: 0 (key: If the expression is greater than 1.3 compared to the control, a grade of 11s given; if this expression is lower, the grade is 0) | EHF expression compared to control [1]: 1.7 and 1.5 and 1.4 and 1.2 | FABP4 expression compared to control [1]: 1.1 and 0.7 and 0.9 | FABP4 grade (NUMBER OF GENES) [1]: 0 (key: If the expression is greater than 1.3 compared to the control, a grade of 11s given; if this expression is lower, the grade is 0) | HSP27 expression compared to control [1]: 1.0 and 1.1 and 0.8 | HSP27 grade (NUMBER OF GENES) [1]: 0 (key: If the expression is greater than 1.3 compared to the control, a grade of 11s given; if this expression is lower, the grade is 0) | HSP90 expression compared to control [1]: 1.5 and 1.2 and 1.0 | IL18 expression compared to control [1]: 0.9 and 0.8 and 1.1 | IL18 grade (NUMBER OF GENES) [1]: 0 (key: If the expression is greater than 1.3 compared to the control, a grade of 11s given; if this expression is lower, the grade is 0) | IVL expression compared to control [1]: 1.8 and 1.3 and 0.9 | KRT4 expression compared to control [1]: 1.7 and 1.1 | MELANA grade (NUMBER OF GENES) [1]: 0 (key: If the expression is greater than 1.3 compared to the control, a grade of 11s given; if this expression is lower, the grade is 0) | NGAL expression compared to control [1]: 1.8 and 1.9 and 1.5 and 1.1 | P13 expression compared to control [1]: 1.5 and 1.4 and 1.2 and 1.3 | PDZK1iP1 expression compared to control [1]: 1.0 | PDZK1iP1 grade (NUMBER OF GENES) [1]: 0 (key: If the expression is greater than 1.3 compared to the control, a grade of 11s given; if this expression is lower, the grade is 0) | SERPINB3 expression compared to control [1]: 1.4 and 1.2 and 1.3 | AHR expression compared to control ([2]; 0.1%): 1.0 | AHR grade (NUMBER OF GENES) ([2]; 0.1%): 0 (if this expression is lower, the grade is 0) | AKR1B10 expression compared to control ([2]; 0.1%): 0.8 | AKR1B10 grade (NUMBER OF GENES) ([2]; 0.1%): 0 (if this expression is lower, the grade is 0) | AKR1C1 expression compared to control ([2]; 0.1%): 1.2 | AKR1C1 grade (NUMBER OF GENES) ([2]; 0.1%): 0 (if this expression is lower, the grade is 0) | AKR1C2 expression compared to control ([2]; 0.1%): 1.1 | AKR1C2 grade (NUMBER OF GENES) ([2]; 0.1%): 0 (if this expression is lower, the grade is 0) | ARE >1.3 (NUMBER OF GENES) ([2]; 0.1%): 5 | CD36 expression compared to control ([2]; 0.1%): 0.9 | CD36 grade (NUMBER OF GENES) ([2]; 0.1%): 0 (if this expression is lower, the grade is 0) | CYP1A1 expression compared to control ([2]; 0.1%): 7.1 | CYP1A1 grade (NUMBER OF GENES) ([2]; 0.1%): 1 (If the expression is greater than 1.3 compared to the control, a grade of 11s given) | CYP1B1 expression compared to control ([2]; 0.1%): 5.3 | CYP1B1 grade (NUMBER OF GENES) ([2]; 0.1%): 1 (If the expression is greater than 1.3 compared to the control, a grade of 11s given) | FTH1P expression compared to control ([2]; 0.1%): 0.9 | FTH1P grade (NUMBER OF GENES) ([2]; 0.1%): 0 (if this expression is lower, the grade is 0) | FTL expression compared to control ([2]; 0.1%): 1.0 | FTL grade (NUMBER OF GENES) ([2]; 0.1%): 0 (if this expression is lower, the grade is 0) | GCLC expression compared to control ([2]; 0.1%): 1.1 | GCLC grade (NUMBER OF GENES) ([2]; 0.1%): 0 (if this expression is lower, the grade is 0) | GCLM expression compared to control ([2]; 0.1%): 2.1 | GCLM grade (NUMBER OF GENES) ([2]; 0.1%): 1 (If the expression is greater than 1.3 compared to the control, a grade of 11s given) | HMOX1 expression compared to control ([2]; 0.1%): 1.1 | HMOX1 grade (NUMBER OF GENES) ([2]; 0.1%): 0 (if this expression is lower, the grade is 0) | NQO1 expression compared to control ([2]; 0.1%): 0.9 | NQO1 grade (NUMBER OF GENES) ([2]; 0.1%): 0 (if this expression is lower, the grade is 0) | NQO2 expression compared to control ([2]; 0.1%): 1.0 | NQO2 grade (NUMBER OF GENES) ([2]; 0.1%): 0 (if this expression is lower, the grade is 0) | S100A8 expression compared to control ([2]; 0.1%): 1.4 | S100A8 grade (NUMBER OF GENES) ([2]; 0.1%): 1 (If the expression is greater than 1.3 compared to the control, a grade of 11s given) | SLC7A11 expression compared to control ([2]; 0.1%): 2.1 | SLC7A11 grade (NUMBER OF GENES) ([2]; 0.1%): 1 (If the expression is greater than 1.3 compared to the control, a grade of 11s given) | TOTAL ARE (NUMBER OF GENES) ([2]; 0.1%): 5 | TXNRD1 expression compared to control ([2]; 0.1%): 3.0 | TXNRD1 grade (NUMBER OF GENES) ([2]; 0.1%): 1 (If the expression is greater than 1.3 compared to the control, a grade of 11s given) | UGT1A1 expression compared to control ([2]; 0.1%): 0.9 | UGT1A1 grade (NUMBER OF GENES) ([2]; 0.1%): 0 (if this expression is lower, the grade is 0) | UGT1A9 expression compared to control ([2]; 0.1%): 1.1 | UGT1A9 grade (NUMBER OF GENES) ([2]; 0.1%): 0 (if this expression is lower, the grade is 0) | AHR expression compared to control ([2]; 1%): 0.6 | AHR grade (NUMBER OF GENES) ([2]; 1%): 0 (if this expression is lower, the grade is 0) | AKR1B10 expression compared to control ([2]; 1%): 0.9 | AKR1B10 grade (NUMBER OF GENES) ([2]; 1%): 0 (if this expression is lower, the grade is 0) | AKR1C1 expression compared to control ([2]; 1%): 4.3 | AKR1C1 grade (NUMBER OF GENES) ([2]; 1%): 1 (If the expression is greater than 1.3 compared to the control, a grade of 11s given) | AKR1C2 expression compared to control ([2]; 1%): 1.2 | AKR1C2 grade (NUMBER OF GENES) ([2]; 1%): 0 (if this expression is lower, the grade is 0) | ARE >1.3 (NUMBER OF GENES) ([2]; 1%): 10 | CD36 expression compared to control ([2]; 1%): 0.6 | CD36 grade (NUMBER OF GENES) ([2]; 1%): 0 (if this expression is lower, the grade is 0) | CYP1A1 expression compared to control ([2]; 1%): 14.6 | CYP1A1 grade (NUMBER OF GENES) ([2]; 1%): 1 (If the expression is greater than 1.3 compared to the control, a grade of 11s given) | CYP1B1 expression compared to control ([2]; 1%): 15.6 | CYP1B1 grade (NUMBER OF GENES) ([2]; 1%): 1 (If the expression is greater than 1.3 compared to the control, a grade of 11s given) | FTH1P expression compared to control ([2]; 1%): 1.2 | FTH1P grade (NUMBER OF GENES) ([2]; 1%): 0 (if this expression is lower, the grade is 0) | FTL expression compared to control ([2]; 1%): 2.1 | FTL grade (NUMBER OF GENES) ([2]; 1%): 1 (If the expression is greater than 1.3 compared to the control, a grade of 11s given) | GCLC expression compared to control ([2]; 1%): 2.2 | GCLC grade (NUMBER OF GENES) ([2]; 1%): 1 (If the expression is greater than 1.3 compared to the control, a grade of 11s given) | GCLM expression compared to control ([2]; 1%): 3.5 | GCLM grade (NUMBER OF GENES) ([2]; 1%): 1 (If the expression is greater than 1.3 compared to the control, a grade of 11s given) | HMOX1 expression compared to control ([2]; 1%): 1.4 | HMOX1 grade (NUMBER OF GENES) ([2]; 1%): 1 (If the expression is greater than 1.3 compared to the control, a grade of 11s given) | NQO1 expression compared to control ([2]; 1%): 1.1 | NQO1 grade (NUMBER OF GENES) ([2]; 1%): 0 (if this expression is lower, the grade is 0) | NQO2 expression compared to control ([2]; 1%): 1.1 | NQO2 grade (NUMBER OF GENES) ([2]; 1%): 0 (if this expression is lower, the grade is 0)
